Key:
CT26 cells = test: Anti-tumor vaccination assay, CT26 cells in BALB/c mice; assay type: in vivo, mouse; details: for frequency of mice showing a protective response: 8 Gy + 10 μM compound 24 h
Description: FIG. 5. Identification of cannibalism modulators as immunogenic cell death inducers. MCA205 (A) or CT26 (E, I, M, Q) cells were treated with the indicated drugs. After 24 h of coculture with the indicated treatment, cell death was monitored by staining DiOC6(3) and PI, and the percentage of dying (DiOC6(3)^low PI^−, open bars) and dead (DiOC6(3)^low PI^+, closed bars) cells was determined by cytofluorometry. (B-D) MCA205 cells or (F-H, J-L, N-P, R-T) CT26 cells cocultured after x irradiation with the indicated compounds were inoculated subcutaneously into the right flank of […] or BALB/c mice, respectively. Seven days later, the mice were rechallenged with live cells injected into the opposite flank, and tumor growth was monitored (five mice per group).
FIG. 6. Tumor vaccination experiments. CT26 cells were treated for 24 hours with 10 μM VP331 (A, F, K), 10 μM Minaprine (B, G, L), 10 μM Lopa87 (C, H, M), 10 μM SG6163F (D, I, N), 10 μM Azaguanine-8 (8-aza) (E, J, O) alone or combined with 8 Gy ionizing radiation and inoculated (s.c.) into immunocompetent BALB/c mice, which were rechallenged at the opposite flank 7 days later with the same cancer cells. The percentage of tumor-free mice was evaluated three times a week for the following 38 days. Percentage of total tumor free mice (A-E), tumor free-mice at the first injection site (F to J, P) or at the second injection site (K to O, Q) are shown. (*P<0.05, **P<0.01, ***P<0.001, two-way ANOVA).
The combination of IRCCE with IR induces efficient antitumor immunity. Considering that immunogenic cell death (ICD) inducers were identified (such as Digoxin, Digitoxin, Lanatoside C or Doxorubicin hydrochloride)^3, 4, 48-51) as IRCCE, the ability of these compounds to induce an antitumor immunity after radiotherapy was evaluated. First, a preclinical approaches was developed to study the immunological effects of IRCCE on two mouse models of carcinoma (colon CT26 carcinoma and fibrosarcoma MCA205). Initially, the ability of the combination of IRCCE+IR to trigger a specific anti-tumor immune response was appreciated using immunocompetent mice through anti-tumor vaccination assays. According to previously published studies^52, the injection of cancer cells succumbing to an immunogenic cell death (ICD) into immunocompetent mice must elicit a protective immune response that is specific for tumor antigens. Thus, 3×10^5 MCA205 cells were first treated with 10 μM of SG6163F for 24 hours. Then, treated cells were inoculated subcutaneously in 200 μl PBS into the lower flank of 8-week-old female C57BL/6 mice. One week later, 3×10^4 untreated control cells were inoculated into the contralateral flank of mice. Tumors were evaluated weekly using a common caliper. Animals bearing tumors that exceeded 20-25% body mass were euthanatized. […] Then, 3×10^6 CT26 cells were irradiated with 8 Gy in presence of 10 μM of SG6163F (FIGS. 5E and 5F), VP331 (FIGS. 5I and 5J), Minaprine dihydrochloride (FIGS. 5M and 5N) or LOPA87 (FIGS. 5Q and 5R) for 24 hours. Then, cells were inoculated as previously described subcutaneously in […] into the lower flank of 8-week-old female BALB/c mice. One week later, 5×10^5 untreated control cells were inoculated into the contralateral flank of mice and tumors were evaluated weekly using a common caliper. As previously mentioned, animals bearing tumors that exceeded 20-25% body mass were euthanatized. The percentage of dying cells in each condition was evaluated by determining with DiOC(6)3/IP staining (FIGS. 5E, 5I, 5M and 5Q). Finally, the ability of these compounds to repress the growth of cancer cells that have been injected 7 days after injection of irradiated and treated cancer cells was appreciated.
A second anti-tumor vaccination assay was done on CT26 mouse models of carcinoma as previously described. […]

HCT116 cells = test: Screening of chemical libraries for IR-mediated cellular cannibalism (imaging flow cytometry, confocal validation); assay type: cell-based, human; details: 8 Gy irradiated HCT116 cells, 10 μM compound, 24 h culture
Description: FIG. 4 Identification of cannibalism modulators triggered by ionizing radiation. Compounds from the Prestwick (A) and CEA (F) libraries were tested for their capacities to induce cellular cannibalism after ionizing radiation. Cannibal cells were detected after homotypic cultures of 8 gray γ-irradiation HCT116 cells in the presence or absence of 10 μM of the Prestwick (A) and CEA […] library compounds. Each dot represents one compound. Representative images are shown in (B, G). (C, H) HCT116 cells were treated with the indicated drugs. After 24 h of treatment, cell death was monitored by staining with 3,3 dihexyloxacarbocyanine iodide (DiOC6(3)) and PI^+, and the percentage of dying (DiOC6(3)^low PI^−, open bars) and dead (DiOC6(3)^low PI^+, closed bars) cells was determined by cytofluorometry. Validation of the cannibalism inducers by fluorescent microscopy. Representative images (D, I) and quantification (E, J) are shown. Results are means s.e.m. of triplicate determinations.
Untreated HCT116 cells were labeled with CMFDA (green fluorescence, CMFDA^+) or CMTMR, (red fluorescence, CMTMR) and treated HCT116 cells with CMFDA (green fluorescence, CMFDA^+). The following cell mixtures were performed: untreated CMTMR^+ HCT116 cells were mixed with untreated CMFDA^+ HCT116 cells, or untreated CMTMR^+ HCT116 cells were mixed with treated CMFDA^+ HCT116 cells. Then, cells were co-cultured during 24 hours in the presence or absence of the pharmacological inhibitor of ROCK, Y27632 (30 μM), the pan-caspase inhibitor, Z-VAD-fmk (ZVAD, 100 μM), the inhibitor of caspase-1, Ac-YVAD-cmk (YVAD, 100 μM), the necroptosis inhibitor, Necrostatin-1 (NEC1, 30 μM), the inhibitor of the vacuolar type H(+)-ATPase (V-ATPase) inhibiting autophagy, Bafilomycin A1 (BafA1, 50 nM), the inhibitor of Cdks with an anti-mitotic activity, Roscovitine (Rosco, 10 μM). After 24 hours of co-culture, both detached and adherent cells were collected and stained with Hoechst […] (10 μg/mL) during 1 hour at 37° C. in warmed complete medium. To detect phosphatidylserine (PS) exposure and plasma membrane permeability, labeled HCT116 cells were successively incubated with Biotin-AnnexinV (BD Pharmingen) as recommended by manufacturer, […] BV786-Streptavidin (BD Biosciences) and 3 μM DRAQ7 (BioStatus) during 15 minutes at 25° C. After washing with PBS solution, samples were immediately analyzed using an imaging flow cytometer FlowSight® (Amnis®, part of EMD Millipore). Data were acquired at a 20× magnification, using INSPIRE software. The 405 nm, 488 nm, and 561 nm lasers were used for excitation. Brightfield, Annexin V-BV786, DRAQ7, CMFDA, CMTMR and Hoechst […] stainings were detected using respectively channels for 420-480 nm, 745-800 nm, 642-745 nm, 480-560 nm, 595-642 nm and 430-505 nm. At least 1000 events of cells per sample were analyzed. Additional single-labeled controls were prepared to normalize fluorescent signal across different channels. Acquired data were analyzed using the IDEAS analysis software (v6.1; Merck-Millipore). Gating strategy was the following. Cells were gated for focused cells using the Gradient RMS feature. Cells were gated for single cells using the aspect ratio and area features. For the cannibalism detection, cells were gated in the double positive CMFDA^+ and CMTMR^+ staining.
To detect PS exposure, plasma membrane permeability and cell cycle progression, cells were after co-culture sequentially labeled with specific fluorescent probes (such as FITC-conjugated AnnexinV, propidium iodide, and Hoechst 33342) and analyzed by flow cytometry. Both detached and adherent cells were collected and stained with Hoechst […] (10 μg/ml) during 1 hour at 37° C. in warmed complete medium. After washing with PBS, HCT116 cells were suspended in 1× binding buffer supplemented with fluorescein isothiocyanate (FITC)-conjugated Annexin V (BD Biosciences) and propidium iodide (PI, 1 μg/mL) (Sigma), as per manufacturer's instructions. […]

[1] = second assay: CT26 cells, rechallenge 7 days later
[2] = first assay: CT26 cells, rechallenge one week later

Compound: Nc1nc2[nH]nnc2c(=O)[nH]1 [Azaguanine-8]
- protective response after injection of cancer cells (CT26 cells; second assay: CT26 cells treated with 10 μM compound alone (no IR)): induce an increase of protective response
- frequency of mice showing a protective response (CT26 cells; [1]): Significant increases in the frequency of mice showing a protective response
- enhancement of IR-mediated cellular cannibalism (HCT116 cells): efficient cellular cannibalism enhancer

Compound: C[C@H]1O[C@@H](O[C@H]2[C@@H](O)C[C@H](O[C@H]3[C@@H](O)C[C@H](O[C@H]4CC[C@@]5(C)[C@H](CC[C@@H]6[C@@H]5CC[C@]5(C)[C@@H](C7=CC(=O)OC7)CC[C@]65O)C4)O[C@@H]3C)O[C@@H]2C)C[C@H](O)[C@@H]1O [Digitoxin]
- enhancement of IR-mediated cellular cannibalism (HCT116 cells): efficient cellular cannibalism enhancer

Compound: C[C@H]1O[C@@H](O[C@H]2[C@@H](O)C[C@H](O[C@H]3[C@@H](O)C[C@H](O[C@H]4CC[C@@]5(C)[C@H](CC[C@@H]6[C@@H]5C[C@@H](O)[C@]5(C)[C@@H](C7=CC(=O)OC7)CC[C@]65O)C4)O[C@@H]3C)O[C@@H]2C)C[C@H](O)[C@@H]1O [Digoxin]
- enhancement of IR-mediated cellular cannibalism (HCT116 cells): efficient cellular cannibalism enhancer

Compound: COc1cccc2c1C(=O)c1c(O)c3c(c(O)c1C2=O)C[C@@](O)(C(=O)CO)C[C@@H]3O[C@H]1C[C@H](N)[C@H](O)[C@H](C)O1.Cl [Doxorubicin hydrochloride]
- enhancement of IR-mediated cellular cannibalism (HCT116 cells): efficient cellular cannibalism enhancer

Compound: CC(C(=O)O)c1ccc(-c2ccccc2)c(F)c1 (stereo not shown) [Flurbiprofen]
- enhancement of IR-mediated cellular cannibalism (HCT116 cells): efficient cellular cannibalism enhancer

Compound: CN(C)c1ccc(-c2cc(=O)[nH]c(-c3ccccc3)n2)cc1 [LOPA87]
- frequency of mice showing a protective response (CT26 cells; [2]): significant increase in the frequency of mice showing a protective response
- frequency of mice showing a protective response (CT26 cells; [1]): Significant increases in the frequency of mice showing a protective response
- enhancement of IR-mediated cellular cannibalism (HCT116 cells): efficient cellular cannibalism enhancer

Compound: CC(=O)O[C@H]1C[C@H](O[C@H]2[C@@H](O)C[C@H](O[C@H]3[C@@H](O)C[C@H](O[C@H]4CC[C@@]5(C)[C@H](CC[C@@H]6[C@@H]5C[C@@H](O)[C@]5(C)[C@@H](C7=CC(=O)OC7)CC[C@]65O)C4)O[C@@H]3C)O[C@@H]2C)O[C@H](C)[C@H]1O[C@@H]1O[C@H](CO)[C@@H](O)[C@H](O)[C@H]1O [Lanatoside C]
- enhancement of IR-mediated cellular cannibalism (HCT116 cells): efficient cellular cannibalism enhancer

Compound: CN1CCc2c(c3ccccc3n2Cc2ccccc2)C1 [Mebhydroline 1,5-naphtalene-disulfonate]
- enhancement of IR-mediated cellular cannibalism (HCT116 cells): efficient cellular cannibalism enhancer

Compound: COc1cc(O)ccc1/C=N/c1ccccc1C(=O)Nc1ccccc1 [RN-1-026]
- enhancement of IR-mediated cellular cannibalism (HCT116 cells): efficient cellular cannibalism enhancer

Compound: CN1c2ccccc2C(=O)N(c2ccccc2)C1c1ccc(-c2csc(CO)n2)s1 (stereo not shown) [VP43]
- enhancement of IR-mediated cellular cannibalism (HCT116 cells): efficient cellular cannibalism enhancer

Compound: COc1ccc(C)cc1/C=N/[C@@H]1C[C@@H]2C[C@H]([C@H]1C)C2(C)C [VP331]
- frequency of mice showing a protective response (CT26 cells; [2]): significant increase in the frequency of mice showing a protective response
- frequency of mice showing a protective response (CT26 cells; [1]): Significant increases in the frequency of mice showing a protective response
- enhancement of IR-mediated cellular cannibalism (HCT116 cells): efficient cellular cannibalism enhancer

Compound: O=C(N/N=C/c1ncc[nH]1)NC12CC3CC(CC(C3)C1)C2 [VP450]
- enhancement of IR-mediated cellular cannibalism (HCT116 cells): efficient cellular cannibalism enhancer

Compound: Myricetin
- enhancement of IR-mediated cellular cannibalism (HCT116 cells): efficient cellular cannibalism enhancer
